The source made the active and inactive calls.
Legend:
[1] = target: Glyceraldehyde-3-phosphate dehydrogenase (Homo sapiens, UniProt P04406)
[2] = target: Heat shock cognate 71 kDa protein (Homo sapiens, UniProt P11142); assay: In Vitro Hsc70 Dose Response Fluorescence Polarization Assay. [Related pubchem assays: 1072 ]
[3] = target: Heat shock 70 kDa protein 1A (Homo sapiens, UniProt P0DMV8); assay: Hsp70 inhibitors, SAR follow-up, biochemical, fluorescence polarization (AID 1072)
Bcl-2-related protein A1 [4] = target: T1, Bcl-2-related protein A1 (Mus musculus, UniProt Q07440); assay: Bfl-1 inhibitors blocking BH3 peptide binding, confirmation, biochemical, TR-FRET, mouse Bfl-1 (AID 621);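 also: TR-FRET binding of GST-Bfl-1 to FITC-labelled Bid peptide via terbium antibody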
T1 sequence (Q07440 whole entry): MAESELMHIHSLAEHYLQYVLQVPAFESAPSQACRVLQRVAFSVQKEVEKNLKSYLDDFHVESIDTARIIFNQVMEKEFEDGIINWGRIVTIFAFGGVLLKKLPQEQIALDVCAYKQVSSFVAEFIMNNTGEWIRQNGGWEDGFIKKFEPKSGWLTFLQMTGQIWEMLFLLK

Bcl-2-related protein A1 [5] = target: T1, Bcl-2-related protein A1; assay: Bfl-1 binding inhibitors, SAR follow-up, biochemical, fluorescence polarization (AID 1070)
Caspase-3 = target: T2, Caspase-3 (Homo sapiens, UniProt P42574); format: functional;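 also: Dose-response selectivity test against caspase-3 for candidate inhibitors of sentrin-specific proteases (SENPs)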
T2 sequence (P42574 whole entry): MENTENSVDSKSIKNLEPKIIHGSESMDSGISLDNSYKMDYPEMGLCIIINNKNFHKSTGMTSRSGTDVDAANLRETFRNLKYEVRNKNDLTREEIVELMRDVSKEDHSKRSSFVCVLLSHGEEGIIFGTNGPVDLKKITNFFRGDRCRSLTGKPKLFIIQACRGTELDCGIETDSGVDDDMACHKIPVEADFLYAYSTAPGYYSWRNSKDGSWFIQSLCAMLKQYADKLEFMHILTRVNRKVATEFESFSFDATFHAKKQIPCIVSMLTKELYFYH

[6] = target: T3, Sentrin-specific protease 7 (Homo sapiens, UniProt Q9BQF6); format: functional;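 also: Luminescence-based dose-response confirmation of ultra-high-throughput screening hits, measuring inhibition of SENP7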
T3 sequence (Q9BQF6 whole entry): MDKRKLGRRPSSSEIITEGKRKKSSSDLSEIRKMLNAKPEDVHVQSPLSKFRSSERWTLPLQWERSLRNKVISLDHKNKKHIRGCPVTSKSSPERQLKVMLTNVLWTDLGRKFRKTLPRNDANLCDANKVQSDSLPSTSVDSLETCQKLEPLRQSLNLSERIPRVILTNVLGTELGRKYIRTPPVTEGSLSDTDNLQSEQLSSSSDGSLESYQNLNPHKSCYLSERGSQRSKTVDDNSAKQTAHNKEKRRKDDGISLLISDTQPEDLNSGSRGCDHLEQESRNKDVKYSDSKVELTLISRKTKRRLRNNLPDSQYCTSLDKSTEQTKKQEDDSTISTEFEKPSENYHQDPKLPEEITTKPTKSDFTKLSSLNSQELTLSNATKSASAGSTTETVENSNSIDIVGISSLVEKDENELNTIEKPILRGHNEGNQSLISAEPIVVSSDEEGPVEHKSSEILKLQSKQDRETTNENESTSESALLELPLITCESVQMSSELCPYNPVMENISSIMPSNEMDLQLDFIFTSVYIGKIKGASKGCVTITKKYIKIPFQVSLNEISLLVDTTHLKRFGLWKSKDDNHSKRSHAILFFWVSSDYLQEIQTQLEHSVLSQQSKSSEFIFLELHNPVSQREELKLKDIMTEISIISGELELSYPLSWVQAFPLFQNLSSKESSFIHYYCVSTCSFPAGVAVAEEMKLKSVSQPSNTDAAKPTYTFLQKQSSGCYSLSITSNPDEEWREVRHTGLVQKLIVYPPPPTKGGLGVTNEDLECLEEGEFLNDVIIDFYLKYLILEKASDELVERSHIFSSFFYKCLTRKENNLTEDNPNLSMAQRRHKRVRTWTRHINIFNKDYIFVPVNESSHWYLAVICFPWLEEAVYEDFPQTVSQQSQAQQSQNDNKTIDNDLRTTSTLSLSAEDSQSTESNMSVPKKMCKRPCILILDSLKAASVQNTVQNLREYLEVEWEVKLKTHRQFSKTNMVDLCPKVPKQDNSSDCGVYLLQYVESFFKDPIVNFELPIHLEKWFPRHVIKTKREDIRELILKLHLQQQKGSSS

[7] = target: T4, Sentrin-specific protease 6 (Homo sapiens, UniProt Q9GZR1); format: functional;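 also: Luminescence-based dose-response confirmatory assay of SENP6 inhibition, following up an ultra-high-throughput screen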
T4 sequence (Q9GZR1 whole entry): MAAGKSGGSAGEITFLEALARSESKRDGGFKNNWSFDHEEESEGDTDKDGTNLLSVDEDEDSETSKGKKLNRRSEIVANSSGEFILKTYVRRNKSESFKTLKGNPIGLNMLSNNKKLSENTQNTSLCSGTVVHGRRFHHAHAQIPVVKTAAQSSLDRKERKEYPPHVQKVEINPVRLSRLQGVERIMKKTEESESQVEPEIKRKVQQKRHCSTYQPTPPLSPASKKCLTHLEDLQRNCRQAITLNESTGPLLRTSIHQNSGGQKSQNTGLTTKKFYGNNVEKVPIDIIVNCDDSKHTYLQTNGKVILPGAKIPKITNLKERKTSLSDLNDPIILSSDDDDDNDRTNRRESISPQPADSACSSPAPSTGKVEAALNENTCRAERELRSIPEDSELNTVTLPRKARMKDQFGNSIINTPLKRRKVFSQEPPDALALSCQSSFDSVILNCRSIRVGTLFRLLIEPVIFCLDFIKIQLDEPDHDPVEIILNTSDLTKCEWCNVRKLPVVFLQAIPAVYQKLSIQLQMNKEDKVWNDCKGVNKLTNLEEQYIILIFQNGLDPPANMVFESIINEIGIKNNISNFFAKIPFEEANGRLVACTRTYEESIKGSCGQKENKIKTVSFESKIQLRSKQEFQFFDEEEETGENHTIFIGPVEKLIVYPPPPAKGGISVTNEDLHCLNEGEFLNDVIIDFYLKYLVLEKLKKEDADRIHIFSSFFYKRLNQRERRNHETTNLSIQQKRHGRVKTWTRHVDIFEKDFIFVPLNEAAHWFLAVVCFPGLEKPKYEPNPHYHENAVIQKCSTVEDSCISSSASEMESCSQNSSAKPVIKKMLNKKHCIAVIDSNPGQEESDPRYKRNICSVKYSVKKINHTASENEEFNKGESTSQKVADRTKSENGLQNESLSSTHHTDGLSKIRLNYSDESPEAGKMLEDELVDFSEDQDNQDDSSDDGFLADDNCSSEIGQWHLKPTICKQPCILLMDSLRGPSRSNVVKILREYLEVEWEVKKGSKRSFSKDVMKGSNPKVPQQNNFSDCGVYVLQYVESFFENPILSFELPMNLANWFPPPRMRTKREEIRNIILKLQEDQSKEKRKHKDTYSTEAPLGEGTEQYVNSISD

[8] = target: T5, Sentrin-specific protease 8 (Homo sapiens, UniProt Q96LD8); format: functional;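 also: luminescence read-out of SENP8 inhibition, dose-response confirmation following an ultra-high-throughput screen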
T5 sequence (Q96LD8 whole entry): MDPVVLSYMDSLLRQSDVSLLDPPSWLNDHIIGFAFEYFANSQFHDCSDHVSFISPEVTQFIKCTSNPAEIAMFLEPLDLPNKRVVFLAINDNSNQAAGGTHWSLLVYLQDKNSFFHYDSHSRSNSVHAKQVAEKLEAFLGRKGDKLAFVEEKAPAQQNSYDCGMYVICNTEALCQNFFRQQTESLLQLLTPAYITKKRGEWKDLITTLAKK

[9] = target: T6, Fructose-bisphosphate aldolase (Mycobacterium tuberculosis, UniProt P9WQA3); assay: Fluorescence-based biochemical high throughput dose response assay for inhibitors of the fructose-bisphosphate aldolase (FBA) of M. tuberculosis.; format: functional
T6 sequence (P9WQA3 whole entry): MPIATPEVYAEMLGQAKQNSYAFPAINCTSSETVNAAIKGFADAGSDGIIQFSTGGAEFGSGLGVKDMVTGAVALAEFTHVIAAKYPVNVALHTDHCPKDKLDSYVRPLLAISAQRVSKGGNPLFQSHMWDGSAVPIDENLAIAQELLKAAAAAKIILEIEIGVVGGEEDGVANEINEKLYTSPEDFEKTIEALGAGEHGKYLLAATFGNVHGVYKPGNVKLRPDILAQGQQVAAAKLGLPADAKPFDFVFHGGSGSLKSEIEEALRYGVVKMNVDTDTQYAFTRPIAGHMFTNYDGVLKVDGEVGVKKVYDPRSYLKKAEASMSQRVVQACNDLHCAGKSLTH

[10] = inhibitors of intracellular T. cruzi replication, confirmation, NIH3T3 host cells, beta-gal luminescence (AID 2044); format: functional, cell-based;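 also: intracellular parasites grown in NIH/3T3 mouse fibroblasts as host cells; luminescent beta-galactosidase reporter signal from transgenic T. cruzi replicating inside host cells; inhibitors lower the luminescence signal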
[11] = cytotoxicity toward NIH3T3 fibroblasts, dose response, counter-screen, cell-based, ATP luminescence, mouse fibroblasts (AID 2010); format: functional;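 also: cells exposed to compound for about 90 hours before reading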
Prothrombin = Prothrombin (Homo sapiens, UniProt P00734); assay: Thrombin 1536 HTS Dose Response Confirmation. [Related pubchem assays: 1046 (Thrombin 1536 HTS; hits were confirmed in this assay)]; format: functional
[12] = target: T7, Disintegrin and metalloproteinase domain-containing protein 17 (Homo sapiens, UniProt P78536); assay: exosite inhibitors of ADAM17, dose response, biochemical (AID 743260)
T7 sequence (P78536 whole entry, the tested form may be a part): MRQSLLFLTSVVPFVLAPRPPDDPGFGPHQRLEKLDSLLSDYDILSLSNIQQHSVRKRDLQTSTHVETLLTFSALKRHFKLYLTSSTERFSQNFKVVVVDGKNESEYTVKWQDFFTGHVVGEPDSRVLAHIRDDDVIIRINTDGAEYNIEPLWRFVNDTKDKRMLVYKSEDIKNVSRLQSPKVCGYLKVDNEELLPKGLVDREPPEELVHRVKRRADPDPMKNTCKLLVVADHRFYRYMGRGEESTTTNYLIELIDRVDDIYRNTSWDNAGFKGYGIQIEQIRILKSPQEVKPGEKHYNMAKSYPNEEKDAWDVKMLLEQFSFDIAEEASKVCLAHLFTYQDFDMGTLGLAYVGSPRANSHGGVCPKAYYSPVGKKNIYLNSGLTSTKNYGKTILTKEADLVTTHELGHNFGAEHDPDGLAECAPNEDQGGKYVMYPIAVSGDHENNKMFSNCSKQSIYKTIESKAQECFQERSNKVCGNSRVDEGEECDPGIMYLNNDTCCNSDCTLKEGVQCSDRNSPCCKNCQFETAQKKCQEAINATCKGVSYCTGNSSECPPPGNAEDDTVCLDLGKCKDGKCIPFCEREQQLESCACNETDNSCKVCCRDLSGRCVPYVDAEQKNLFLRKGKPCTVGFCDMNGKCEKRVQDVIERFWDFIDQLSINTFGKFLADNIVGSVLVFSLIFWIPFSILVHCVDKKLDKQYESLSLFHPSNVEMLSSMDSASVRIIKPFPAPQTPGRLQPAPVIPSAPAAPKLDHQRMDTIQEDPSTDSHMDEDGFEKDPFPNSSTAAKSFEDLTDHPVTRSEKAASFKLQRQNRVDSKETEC

[13] = ADAM10 protease inhibitors, dose response, selectivity assay for ADAM17 exosite inhibitor project, biochemical, FRET peptide substrate, recombinant human ADAM10 (AID 743259);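 also: ADAM10 enzyme cleaving a FRET peptide substrate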
[14] = ADAM10 inhibitors, peptide cleavage, dose response, biochemical, QFRET (AID 743254);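 also: ADAM10 enzyme with the DM2 quenched FRET peptide as substrate; EDANS fluorescence gain as the protease cuts the substrate; inhibitor potency against ADAM10 proteolytic activity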
[15] = target: T7, Disintegrin and metalloproteinase domain-containing protein 17; assay: ADAM17 protease inhibitors, dose response, counter-screen for ADAM10 exosite inhibitor project, biochemical, quenched FRET substrate (AID 743253)
[16] = A cytotoxicity screen of small molecule inhibitors of the PhoP region in Salmonella typhi identified in the primary screen. [Related pubchem assays: 1850, 1864, 1985 ]; format: functional
[17] = target: Luciferin 4-monooxygenase (Photinus pyralis, UniProt P08659); assay: Counter Screen for Luciferase-based Assay Positives. [Related pubchem assays: 620, 618, 411 ]
Sequence of Luciferin 4-monooxygenase (P08659 whole entry): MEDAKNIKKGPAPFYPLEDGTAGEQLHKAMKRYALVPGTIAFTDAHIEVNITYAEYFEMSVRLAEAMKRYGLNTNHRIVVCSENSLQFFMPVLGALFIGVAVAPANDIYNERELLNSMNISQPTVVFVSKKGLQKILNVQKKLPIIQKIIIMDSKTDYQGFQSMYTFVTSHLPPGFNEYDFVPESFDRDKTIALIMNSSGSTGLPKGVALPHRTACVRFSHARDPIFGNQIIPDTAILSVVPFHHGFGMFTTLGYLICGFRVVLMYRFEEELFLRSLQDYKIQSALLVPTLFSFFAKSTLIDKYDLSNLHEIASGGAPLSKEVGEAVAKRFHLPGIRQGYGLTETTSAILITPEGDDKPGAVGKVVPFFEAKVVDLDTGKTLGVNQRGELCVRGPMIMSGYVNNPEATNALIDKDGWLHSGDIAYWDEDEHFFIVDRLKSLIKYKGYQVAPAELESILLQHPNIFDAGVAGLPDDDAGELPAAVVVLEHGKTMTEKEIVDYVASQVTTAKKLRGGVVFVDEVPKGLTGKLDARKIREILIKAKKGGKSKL

HT-1080 = assay: cytotoxicity in HT1080 fibrosarcoma cells, cell-based, fluorescence readout (AID 620); format: functional; conditions: Homo sapiens
Paired box protein Pax-8 = Paired box protein Pax-8 (Homo sapiens, UniProt Q06710); assay: inhibitors of PAX8-driven TPO luciferase reporter, dose response, RMG-I cells, cherry-pick (AID 687027); format: functional, cell-based;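 also: luciferase reporter driven by Pax8 target thyroperoxidase promoter measured by SteadyGlo luminescence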
Sequence of Paired box protein Pax-8 (Q06710 whole entry): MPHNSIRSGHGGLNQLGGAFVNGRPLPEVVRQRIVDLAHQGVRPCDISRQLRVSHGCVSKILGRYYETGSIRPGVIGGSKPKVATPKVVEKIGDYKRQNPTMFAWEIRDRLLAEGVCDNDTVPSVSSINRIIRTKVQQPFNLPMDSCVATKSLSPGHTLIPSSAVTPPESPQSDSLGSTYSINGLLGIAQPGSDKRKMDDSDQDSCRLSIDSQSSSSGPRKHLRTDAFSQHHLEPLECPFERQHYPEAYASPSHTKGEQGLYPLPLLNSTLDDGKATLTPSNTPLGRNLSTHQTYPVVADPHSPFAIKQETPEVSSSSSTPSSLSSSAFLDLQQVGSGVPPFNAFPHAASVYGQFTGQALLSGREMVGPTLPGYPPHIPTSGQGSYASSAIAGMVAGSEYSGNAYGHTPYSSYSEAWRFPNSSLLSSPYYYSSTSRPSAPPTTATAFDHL

[18] = HEK293T cytotoxicity, dose response, cytotoxicity control for miR-122 modulator project, cell-based, inhibitor set, cherry-pick, set 2 (AID 720697); format: functional
[19] = non-specific cell cytotoxicity, dose response, cytotoxicity control for PAX8 inhibitor project, plate reader, dry powder samples (AID 743021); format: functional, cell-based

Sequence of Glyceraldehyde-3-phosphate dehydrogenase (P04406 whole entry): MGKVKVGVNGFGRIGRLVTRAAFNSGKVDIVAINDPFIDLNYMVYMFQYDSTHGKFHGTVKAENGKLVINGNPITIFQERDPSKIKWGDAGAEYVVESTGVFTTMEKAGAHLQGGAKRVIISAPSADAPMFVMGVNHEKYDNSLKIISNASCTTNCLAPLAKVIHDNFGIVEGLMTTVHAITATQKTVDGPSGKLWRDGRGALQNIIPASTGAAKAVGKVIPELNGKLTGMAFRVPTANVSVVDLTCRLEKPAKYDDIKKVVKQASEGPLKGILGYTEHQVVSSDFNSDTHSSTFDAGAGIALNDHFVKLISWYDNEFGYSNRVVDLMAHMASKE
Sequence of Heat shock cognate 71 kDa protein (P11142 whole entry): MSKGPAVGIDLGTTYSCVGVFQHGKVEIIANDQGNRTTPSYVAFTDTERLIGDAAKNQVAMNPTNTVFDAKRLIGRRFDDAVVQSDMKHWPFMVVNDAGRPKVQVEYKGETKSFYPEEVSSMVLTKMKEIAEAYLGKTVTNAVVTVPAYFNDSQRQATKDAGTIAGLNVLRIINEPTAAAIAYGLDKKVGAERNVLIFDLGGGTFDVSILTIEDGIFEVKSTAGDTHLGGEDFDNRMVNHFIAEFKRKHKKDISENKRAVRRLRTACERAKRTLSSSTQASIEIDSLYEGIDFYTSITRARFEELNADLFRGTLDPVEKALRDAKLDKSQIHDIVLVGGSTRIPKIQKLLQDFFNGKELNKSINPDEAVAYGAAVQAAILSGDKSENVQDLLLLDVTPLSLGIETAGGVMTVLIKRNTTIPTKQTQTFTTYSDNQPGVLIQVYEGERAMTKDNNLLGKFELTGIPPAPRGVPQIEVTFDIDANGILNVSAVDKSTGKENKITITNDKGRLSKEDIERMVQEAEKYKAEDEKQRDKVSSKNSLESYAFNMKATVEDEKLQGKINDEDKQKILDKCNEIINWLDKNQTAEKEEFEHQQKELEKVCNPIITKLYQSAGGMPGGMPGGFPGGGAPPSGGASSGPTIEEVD
Sequence of Heat shock 70 kDa protein 1A (P0DMV8 whole entry): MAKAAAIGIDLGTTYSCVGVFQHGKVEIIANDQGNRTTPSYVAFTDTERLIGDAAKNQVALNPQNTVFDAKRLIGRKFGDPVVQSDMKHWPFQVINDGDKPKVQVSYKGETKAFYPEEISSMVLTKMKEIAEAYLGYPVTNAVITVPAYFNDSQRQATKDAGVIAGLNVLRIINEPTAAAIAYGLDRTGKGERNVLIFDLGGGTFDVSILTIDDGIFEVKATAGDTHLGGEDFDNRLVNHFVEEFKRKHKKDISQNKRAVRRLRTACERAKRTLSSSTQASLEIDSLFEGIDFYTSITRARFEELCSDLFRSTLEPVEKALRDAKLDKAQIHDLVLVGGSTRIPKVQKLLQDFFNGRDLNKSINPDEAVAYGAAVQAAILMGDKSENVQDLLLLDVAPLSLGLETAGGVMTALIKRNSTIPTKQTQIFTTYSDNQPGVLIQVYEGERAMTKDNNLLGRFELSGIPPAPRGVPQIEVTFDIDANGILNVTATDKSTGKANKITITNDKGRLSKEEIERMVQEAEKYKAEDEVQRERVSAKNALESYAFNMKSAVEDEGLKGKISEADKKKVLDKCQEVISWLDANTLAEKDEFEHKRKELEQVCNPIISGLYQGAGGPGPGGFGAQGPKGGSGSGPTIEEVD

## O=C1C(Cl)=C(N2CCN(CCOCCO)CC2)C(=O)N1c1ccc(Cl)c(Cl)c1
[1]
  IC50: > 100 µM (not active)
[2]
  IC50: > 100 µM (not active)
[3]
  IC50: > 100 µM (not active)
Bcl-2-related protein A1 [4]
  IC50: 0.42 µM (active)
Bcl-2-related protein A1 [5]
  IC50: 0.47 µM (active)

## CC(=O)N1C(=O)/C(=C2\SC(=S)N(NC(=O)c3ccc(O)cc3)C2=O)c2ccccc21
Caspase-3
  IC50: 12.9 µM (active)
[6]
  IC50: 35.3 µM (active)
[7]
  IC50: 3.1 µM (active)
[8]
  IC50: 10.3 µM (active)
[9]
  IC50: 4.74 µM (active)

## CCCCN(C)CCNC(=O)c1nn(-c2ccc(OC)cc2)c(=O)c2c1c1ccccc1n2C
[10]
  EC50: < 0.1 µM (active)
[11]
  EC50: > 60 µM (not active)
cells
  EC50: 0.44 µM (active)

## COc1ccc(NC(=S)Nc2ccc3cn[nH]c3c2)cc1
Prothrombin
  IC50: 5.6 µM (active)

## Cc1cccc(Nc2nnc(SCC(=O)c3ccc(Br)s3)s2)c1C
[12]
  IC50: > 69.5 µM (inactive)
[13]
  IC50: > 69.5 µM (inactive)

## CC(C)(C)OC(=O)NCc1ccc(CNC(=O)c2[nH]cnc2C(=O)N[C@@H](Cc2ccccc2)C(=O)OC(C)(C)C)cc1
[14]
  IC50: 9.77 µM (active)

## CC(C)(C)OC(=O)NCc1ccc(CNC(=O)c2nc[nH]c2C(=O)N[C@@H](Cc2ccccc2)C(=O)OC(C)(C)C)cc1
[15]
  IC50: > 69.5 µM (inactive)

## Cc1ccccc1CN(c1ccc(C(=O)Nc2ccccc2C(=O)NCc2ccco2)cc1)S(C)(=O)=O
[14]
  IC50: > 69.5 µM (inactive)
[15]
  IC50: > 69.5 µM (inactive)

## Cc1nc(C)c(-c2ccc(SCc3ccccc3C)nn2)s1
[16]
  EC50: > 50 µM (active)

## COc1nc(C)ccc1-c1noc(-c2ccco2)n1
[17]
  EC50: 1.78 µM (active)
HT-1080
  EC50: > 50 µM (not active)

## CC(C)N(CCn1c(SCC(=O)N2CC(=O)Nc3ccccc32)nc2ccccc2c1=O)C(C)C
[10]
  EC50: < 0.1 µM (active)
[11]
  EC50: > 60 µM (not active)
cells
  EC50: 0.061 µM (active)

## O=c1oc(-c2ccccc2[N+](=O)[O-])nc2ccccc12
Prothrombin
  IC50: 0.116 µM (active)

## CCOc1ccc(CCN2C(=S)N([C@@H](Cc3ccc(O)cc3)CN3CCC[C@@H]3CN3C(=S)NC[C@@H]3CC(C)C)C[C@@H]2Cc2ccc(O)cc2)cc1
Paired box protein Pax-8
  AC50: 8.84 µM (active)
[14]
  IC50: 12.4 µM (inactive)
[15]
  IC50: > 69.5 µM (inactive)

## CCc1nc2sc(C)c(C)c2c(=O)n1CCO
[18]
  AC50: 8.36 µM (active)

## COC(=O)C1=C(C)N(Cc2cccc(C(F)(F)F)c2)C(NCC2CC2)=NC1c1cccc(C(F)(F)F)c1 (configuration not stated)
Paired box protein Pax-8
  AC50: 17.2 µM (active)
[19]
  AC50: 20.8 µM (active)

## Cc1sc2nc(SCC(=O)c3ccc(O)c(O)c3)n(Cc3ccco3)c(=O)c2c1C
[12]
  IC50: > 69.5 µM (inactive)
[13]
  IC50: > 69.5 µM (inactive)

## COCC(=O)N(C)C[C@@H]1[C@H](c2ccc(-c3ccccc3)cc2)[C@@H](CO)N1C(C)=O
[18]
  AC50: 9.74 µM (active)

## COc1ccc(C2C(=O)c3ccccc3C2=O)cc1OC
Prothrombin
  IC50: > 50 µM (not active)

Source: ChEMBL document CHEMBL1201862, “PubChem BioAssay data set” (2004)
